# Assay results taken from patent publication US8940936B2, “Aryloxy phenoxy acrylic compound having HIF-1 inhibition activity, method for preparing same, and pharmaceutical composition containing same as an active ingredient” (Korea Research Institute of Bioscience and Biotechnology, priority 2010, dated 2015).
# Values joined by “and” are separate entries in the source; they are usually repeats but may differ in a detail not shown here. Equal values may be shown once.
# Columns and labels:
# [1] = Mouse weight changes and symptoms, intraperitoneal administration (B16F10 angiogenesis experiment); assay type: in vivo; conditions: for Mouse weight changes (%): ip, Example 1 20 mg/kg/day, topotecan 2 mg/kg/2 day
# Experimental: (§1) Particularly, the experimental group composed of 5 female mice (C57BL) at 6 weeks was transplanted with B16F10 melanoma cell line. After the cancer cells were grown, the mice were treated with the compound of formula 1 via intraperitoneal injection at the dose of […] for 5 days. Inhibition of angiogenesis and the tumor growth were observed. In the meantime, the control group was treated with the mixed solution comprising 10% DMAC, 10% cremophor and 80% buffer (pH 10) every day. The comparative group was treated with topotecan at the dose of 2 mg/kg once every other day. Weight changes and the newly generated blood vessels were measured and the results are shown in Table 7, Table 8, FIG. 7, and FIG. 8. The tumor volume shown in Table 8 was calculated by the mathematical formula 1 of experimental example 4 and the inhibition rate was calculated by the mathematical formula 2 of experimental example 4.
# [2] = tested on: B16F10 melanoma cell line; experiment: Tumor growth, B16F10 melanoma in C57BL mice, intraperitoneal administration; assay type: in vivo, mouse; conditions: Example 1 20 mg/kg/day, topotecan 2 mg/kg/2 day; for Tumor volume changes (mm^3): ip; for Inhibition rate (%) of tumor volume: vs control
# Experimental: as §1
# [3] = tested on: human kidney cancer cell line Caki-1; experiment: In vivo anticancer activity, intravenous injection 2, Caki-1 kidney cancer in nude mice; design: species or system mouse; conditions: Example 1 20 mg/kg/day, topotecan 2 mg/kg/day; for Tumor volume (mm^3) / Tumor weight: iv; for Inhibition rate (%) of tumor volume / Inhibition rate (%) of tumor weight: vs control; for Tumor weight: day 14 (final day)
# Experimental: To evaluate the inhibition effect of the compound prepared in example 1 administered via intravenous injection on the growth of kidney cancer, in vivo anticancer activity in mouse was measured. Particularly, nude-mice were grouped for experimental and control groups (5 mice per group). Changes in body weight, tumor volume, and tumor weight were measured to evaluate in vivo anticancer activity.
# Female nude mice at 6 weeks (BALB/c nu/nu, Charles River) were raised in a germ-free facility where temperature and humidity were maintained at proper levels during the whole experimental period. After anesthetizing each mouse, the human kidney cancer cell line Caki-1 was transplanted in kidney tissues at the density of 4×10^7 cells/mouse, and then the opened kidney was sealed with surgical clips. After transplanting the kidney cancer cell line, the tumor volume was measured with calipers. When the tumor volume reached 52.7 mm^3, the compound of the present invention prepared in example 1 was treated thereto. Particularly, for the experimental group, the compound of example 1 was dissolved in the solvent composed of cremophor (10%), DMAC (10%), and pH 10 buffer […], which is indicated as ‘solvent B’ hereinafter, at the concentration of 20 mg/kg. The prepared compound solution was intravenously administered to the experimental group mice once a day at the dose of […]. The control was treated with the solvent B only without the compound once a day via oral administration at the dose of 15 ml/kg. The comparative group was treated with the solvent B containing topotecan (2 mg/kg) via intravenous injection once a day at the dose of 15 ml/kg. The weight and the tumor volume were measured once a day on day 0, 2, 4, 7, 9, 11, and 14.
# Tumor volume was calculated by the mathematical formula 1 of Experimental Example 4. To investigate the toxicity according to the repeated intravenous administration of the compound of example 1, mouse weight changes were observed and presented in Table 5. Inhibition rate (%) in Table 6 was calculated by the mathematical formula 2, which indicates the inhibition of tumor growth by the compound presented by %.
# [4] = tested on: human rectal cancer cell line HCT116; experiment: In vivo anticancer activity, intravenous injection, HCT116 rectal cancer in nude mice; design: species or system mouse; conditions: Example 1 30 mg/kg/day, topotecan 2 mg/kg/day; for Tumor volume changes (mm^3): iv; for Inhibition rate (%) of tumor volume: vs control
# Experimental: To evaluate the inhibition effect of the compound prepared in example 1 administered via intravenous injection on the growth of rectal cancer, in vivo anticancer activity in mouse was measured. Particularly, nude-mice were grouped for experimental and control groups (5 mice per group). Changes in body weight, tumor volume, and tumor weight were measured to evaluate in vivo anticancer activity.
# Female nude mice at 6 weeks (BALB/c nu/nu, Charles River) were raised in a germ-free facility where temperature and humidity were maintained at proper levels during the whole experimental period. After anesthetizing each mouse, the human rectal cancer cell line HCT116 was transplanted in rectal tissues at the density of 4×10^7 cells/mouse, and then the opened rectum was sealed with surgical clips. After transplanting the rectal cancer cell line, the tumor volume was measured with calipers. When the tumor volume reached 54.5 mm^3, the compound of the present invention prepared in example 1 was treated thereto. Particularly, for the experimental group, the compound of example 1 was dissolved in the solvent composed of saline (80%), DMAC (10%), and tween 80 (10%), which is indicated as ‘solvent A’ hereinafter, at the concentration of 30 mg/kg. […] The control was treated with the solvent A only without the compound once a day via oral administration at the dose of 15 ml/kg. The comparative group was treated with the solvent A containing topotecan (2 mg/kg) via intravenous injection once a day at the dose of 15 ml/kg. The weight and the tumor volume were measured once a day on day 0, 2, 3, 4, 5, 6, and 8.
# Tumor volume was calculated by the following mathematical formula 1. To investigate the toxicity according to the repeated intravenous administration of the compound of example 1, mouse weight changes were observed and presented in Table 3. Inhibition rate (%) in Table 4 was calculated by the following mathematical formula 2, which indicates the inhibition of tumor growth by the compound presented by %. Tumor Volume(mm^3)=(major axis length of tumor cells, mm)×(minor axis length of tumor cells, mm)^2×0.5 [Mathematical Formula 1] Inhibition Rate (%)=[(Tumor Volume of Control−Tumor Volume of Experimental Group)/(Tumor Volume of Control)]×100 [Mathematical Formula 2]
structure (smiles),measurement,setting,value
"COC(=O)c1cccc(NC(=O)/C=C/Oc2ccc(C34CC5CC(CC(C5)C3)C4)cc2)c1 [Example 1, (E)-3-[3-(4-Adamantan-1-yl-phenoxy)-acryloylamino]-benzoic acid methyl ester]",body weight on the final day of observation (day 5) compared with control,"[1]; 20 mg/kg ip, C57BL mice",not significantly reduced
same,symptoms during repeated intraperitoneal injection,"[1]; 20 mg/kg ip, C57BL mice, 5 days",no specific symptom was observed
same,Mouse weight changes (%),[1]; day 0,100.0 ± 0.0%
same,Mouse weight changes (%),[1]; day 2,102.6 ± 1.6%
same,Mouse weight changes (%),[1]; day 5,107.6 ± 3.9%
same,Tumor volume changes (mm^3),[2]; day 0,0.0 ± 0.0 mm^3
same,Tumor volume changes (mm^3),[2]; day 3,26.8 ± 3.6 mm^3
same,Inhibition rate (%) of tumor volume,[2]; day 3,19.7%
same,Tumor volume changes (mm^3),[2]; day 4,36.4 ± 4.8 mm^3
same,Inhibition rate (%) of tumor volume,[2]; day 4,22.5%
same,Tumor volume changes (mm^3),[2]; day 5,55.8 ± 5.8 mm^3
same,Inhibition rate (%) of tumor volume,[2]; day 5,28.9%
same,Tumor volume (mm^3),[3]; day 0,0.0 ± 0.0 mm^3
same,Tumor volume (mm^3),[3]; day 2,17.1 ± 2.0 mm^3
same,Inhibition rate (%) of tumor volume,[3]; day 2,18.4%
same,Tumor volume (mm^3),[3]; day 4,41.4 ± 13.5 mm^3
same,Inhibition rate (%) of tumor volume,[3]; day 4,21.6%
same,Tumor volume (mm^3),[3]; day 7,77.6 ± 11.8 mm^3
same,Inhibition rate (%) of tumor volume,[3]; day 7,24.2%
same,Tumor volume (mm^3),[3]; day 9,107.0 ± 18.5 mm^3
same,Inhibition rate (%) of tumor volume,[3]; day 9,28.2%
same,Tumor volume (mm^3),[3]; day 11,141.9 ± 14.8 mm^3
same,Inhibition rate (%) of tumor volume,[3]; day 11,30.6%
same,Tumor weight,[3],640.0 ± 61.8 mg
same,Tumor volume (mm^3),[3]; day 14,200.2 ± 34.2 mm^3
same,Inhibition rate (%) of tumor volume,[3]; day 14,30% and 30.9%
same,Inhibition rate (%) of tumor weight,[3]; day 14,29.6%
same,Tumor volume changes (mm^3),[4]; day 0,0.0 ± 0.0 mm^3
same,Tumor volume changes (mm^3),[4]; day 2,19.4 ± 5.8 mm^3
same,Inhibition rate (%) of tumor volume,[4]; day 2,35.3%
same,Tumor volume changes (mm^3),[4]; day 4,50.6 ± 20.9 mm^3
same,Inhibition rate (%) of tumor volume,[4]; day 4,52.1%
same,Tumor volume changes (mm^3),[4]; day 6,114.3 ± 36.8 mm^3
same,Inhibition rate (%) of tumor volume,[4]; day 6,47.0%
same,Tumor volume changes (mm^3),[4]; day 8,176.8 ± 50.0 mm^3
same,Inhibition rate (%) of tumor volume,[4]; day 8,45.7%
"CC[C@@]1(O)C(=O)OCc2c1cc1n(c2=O)Cc2cc3c(CN(C)C)c(O)ccc3nc2-1 [topotecan, reference compound]",Mouse weight changes (%),[1]; day 0,100.0 ± 0.0%
same,Mouse weight changes (%),[1]; day 2,101.2 ± 0.6%
same,Mouse weight changes (%),[1]; day 5,103.7 ± 1.4%
same,Tumor volume changes (mm^3),[2]; day 0,0.0 ± 0.0 mm^3
same,Tumor volume changes (mm^3),[2]; day 3,20.9 ± 2.6 mm^3
same,Inhibition rate (%) of tumor volume,[2]; day 3,37.4%
same,Tumor volume changes (mm^3),[2]; day 4,27.1 ± 2.3 mm^3
same,Inhibition rate (%) of tumor volume,[2]; day 4,42.4%
same,Tumor volume changes (mm^3),[2]; day 5,42.9 ± 4.5 mm^3
same,Inhibition rate (%) of tumor volume,[2]; day 5,45.4%
same,Tumor volume (mm^3),[3]; day 0,0.0 ± 0.0 mm^3
same,Tumor volume (mm^3),[3]; day 2,16.7 ± 2.3 mm^3
same,Inhibition rate (%) of tumor volume,[3]; day 2,20.1%
same,Tumor volume (mm^3),[3]; day 4,38.7 ± 4.8 mm^3
same,Inhibition rate (%) of tumor volume,[3]; day 4,26.6%
same,Tumor volume (mm^3),[3]; day 7,67.8 ± 8.6 mm^3
same,Inhibition rate (%) of tumor volume,[3]; day 7,33.8%
same,Tumor volume (mm^3),[3]; day 9,88.5 ± 19.6 mm^3
same,Inhibition rate (%) of tumor volume,[3]; day 9,40.6%
same,Tumor volume (mm^3),[3]; day 11,120.9 ± 36.0 mm^3
same,Inhibition rate (%) of tumor volume,[3]; day 11,40.9%
same,Tumor weight,[3],472.4 ± 137.6 mg
same,Tumor volume (mm^3),[3]; day 14,156.9 ± 51.3 mm^3
same,Inhibition rate (%) of tumor volume,[3]; day 14,45.8%
same,Inhibition rate (%) of tumor weight,[3]; day 14,48.0%
same,Tumor volume changes (mm^3),[4]; day 0,0.0 ± 0.0 mm^3
same,Tumor volume changes (mm^3),[4]; day 2,16.5 ± 3.9 mm^3
same,Inhibition rate (%) of tumor volume,[4]; day 2,44.9%
same,Tumor volume changes (mm^3),[4]; day 4,44.3 ± 10.1 mm^3
same,Inhibition rate (%) of tumor volume,[4]; day 4,58.1%
same,Tumor volume changes (mm^3),[4]; day 6,69.1 ± 13.2 mm^3
same,Inhibition rate (%) of tumor volume,[4]; day 6,67.9%
same,Tumor volume changes (mm^3),[4]; day 8,93.1 ± 22.3 mm^3
same,Inhibition rate (%) of tumor volume,[4]; day 8,71.4%
